Assay results reported in publication PMC13113287, “Synthesis and Biological Profiling of New 1,2,3,4-Tetrahydrobenzo[h]naphthyridine-Based Hybrids as Dual Inhibitors of β-Amyloid and Tau Aggregation with Anticholinesterase Activity” (Biomolecules, 2026).

Settings: reference drugs for assay validation; mean ± SD of three experiments in triplicate

| Compound | Experimental Pe (PAMPA-BBB) |
| --- | --- |
| CCn1cc(C(=O)O)c(=O)c2cc(F)c(N3CCNCC3)cc21 [Norfloxacin] | 0.8 ± 0.05 10^−6 cm s^−1 |
| CN1C(C(=O)Nc2ccccn2)=C(O)c2ccccc2S1(=O)=O [Piroxicam] | 2.4 ± 0.07 10^−6 cm s^−1 |
